Test results from patent US20040039060A1, “Inhibitor for enzyme having two divalent metal ions as active centers” (priority 2000, published 2004).
Read-outs that look alike come from different tables or passages of the source.

Tests used:
[1] = biological target: HIV-1 integrase (Human immunodeficiency virus type 1 group M subtype B, UniProt P04585); experiment: HIV-1 integrase inhibition assay (microtiter plate, immobilised substrate DNA, Dig-labelled target DNA, OD 405 nm); assay type: biochemical
Method: Substrate DNA and target DNA, which sequences were indicated below, were synthesized by Amersham Pharmacia Biotech and dissolved in KTE buffer (composition: 100 mM KCl, 1 mM EDTA, 10 mM Tris-HCl (pH 7.6)) at concentration of 2 pmol/μl and 5 pmol/μl, respectively. The DNA solutions were annealed with each complement by slowly cooling after heating.
Streptavidin, obtained from Vector Laboratories, was dissolved in 0.1 M carbonate buffer (composition: 90 mM Na2CO3, 10 mM NaHCO3) at concentration of 40 μg/ml. After coating each well of microtiter plates (obtained from NUNC) with 50 μl of the above solution at 4° C. overnight, each well was washed twice with PBS (composition: 13.7 mM NaCl, 0.27 mM KCl, 0.43 mM Na2HPO4, 0.14 mM KH2PO4) and blocked with 300 μl of 1% skim milk in PBS for 30 min. Additionally, each well was washed twice with PBS and added 50 μl of substrate DNA solution (2 pmol/μl). The microtiter plates were kept at room temperature for 30 min. Then, each well was washed twice with PBS and once with H2O.
Subsequently, in the each well prepared above were added 45 μl of the reaction buffer prepared from 12 μl of the buffer (composition: 150 mM MOPS (pH 7.2), 75 mM MnCl2, 50 mM 2-mercaptoethanol, 25% glycerol, 500 μg/ml bovine serum albumin-fraction V), 1 μl of target DNA (5 pmol/μl), and 32 μl of the distilled water. Additionally, 6 μl of either a test compound in DMSO or DMSO for positive control(PC) was mixed with the above reaction buffer, then 9 μl of an integrase solution (30 pmol) was added and mixed well. In the well of negative control (NC) was added 9 μl of the integrase dilution buffer (composition: 20 mM MOPS (pH7.2), 400 mM potassium glutamate, 1 mM EDTA, 0.1% NP-40, 20% glycerol, 1 mM DTT, 4M urea).
The microtiter plates were incubated at 30° C. for 1 hour. The reaction solution was removed and each well was washed twice with PBS. Subsequently, each well of the microtiter plates was filled with 100 μl of anti-digoxigenin antibody labeled with alkaline phosphatase (Sheep Fab fragment: obtained from Boehringer) and incubated at 30° C. for 1 hour. Then, each well was washed twice with 0.05% Tween20 in PBS and once with PBS. Next, 150 μl of the Alkaline phosphatase reaction buffer (composition: 10 mM p-Nitrophenylphosphate (obtained from Vector Laboratories), 5 mM MgCl2, 100 mM NaCl, 100 mM Tris-HCl (pH 9.5)) was added in each well. […] The optical density (OD) at 405 nm of each well was measured and the percent inhibition was determined by the following expression.
The percent inhibition (%)=100[1-{(C abs.−NC abs.)/(PC abs.−NC abs.)}]
When the percent inhibition (%) is X % at the concentration of x μg/ml and the percent inhibition (%) is Y % at the concentration of y μg/ml, one of which is more than 50% and the other is less than 50%, IC50 can be determined by the following expression.
IC50(μg/ml)=x-{(X-50)(x-y)/(X-Y)}
Compound No. in the Table 1 is the same as compound No. of the above example.

[2] = UV spectrum measurement with stepwise addition of Mg2+ solution (chelate formation); assay type: physicochemical; conditions: compound 0.05 mmol/l, Mg2+ 0 to 3.6 mol/l, 240 nm to 500 nm, cell length 1 cm
Method: Compounds C-1, D-2, D-5 and D-6 were employed to determine UV spectra with treating dropwise with metal solutions.
The UV spectrum measurement was conducted with the cell length of 1 cm at a wavelength of 240 nm to 500 nm. Each test solution was obtained by preparing Solutions A^1, A2, B and C as shown below, adding an indicated volume of Solution A^1 or A2 to 1 ml of Solution B, making the total, volume 10 ml with Solution C. The concentrations of Compounds C-1, D-2, D-5 and D-6 in test solutions here were all adjusted at 0.05 mmol/l, and the concentrations of Mg^2+ were as indicated in Table 5.
Solution A1: MgCl2 4 mol/l, MOPS 50 mmol/l, NaOH 23.6 mmol/l, Solvent: Water
Solution A2: MgCl2 1 mol/l, MOPS 50 mmol/l, NaOH 23.6 mmol/l, Solvent: Water
Solution B: Compound 1 0.5 mmol/l, Solvent: DMSO
Solution C: NaCl 3 mol/l, MOPS 50 mmol/l, 23.6 mmol/l, Solvent: Water
For the purpose of indicating the change in the UV spectrum as a result of the increase in the metal ion concentration, one figure contained each UV spectrum curve at various metal ion concentrations.

Structure (SMILES)	IC50 [1] [µM]	melting point	IC50 ([1]; concentration of the compound at percent inhibition 50%, MnCl2 buffer, 30° C., 1 hour) [µg/mL]	change in the UV spectrum curve as the metal ion concentration was increased [2]
O=C(O)c1ccnc(C(O)=CC(=O)c2ccc(Cc3ccc(F)cc3)o2)c1 [Compound A-5, 3(4-Carboxypyridin-2-yl)-1-[5-(4-fluorobenzyl)furan-2-yl]-3-hydroxy-propenone]	0.191	208 to 210 °C		
O=C(C=C(O)c1ccon1)c1ccc(Cc2ccc(F)cc2)o1 [Compound A-9, 1-[5-(4-Fluorobenzyl)furan-2-yl]-3-hydroxy-3-(isoxazol-3-yl)-propenone]	10.5	50 to 52 °C		
O=C(O)C(O)=Cc1ccnc(CCc2ccccc2)c1 [Compound D-5]			>100	1-step change
O=C(C=C(O)c1ccncc1)c1ccc(Cc2ccc(F)cc2)o1 [Compound B-8, 1-[5-(4-Fluorobenzyl)furan-2-yl]-3-hydroxy-3-(pyridin-4-yl)-propenone]	> 309	90 to 92 °C		
O=C(C=C(O)c1ncccn1)c1ccc(Cc2ccc(F)cc2)o1 [Compound A-2, 1-[5-(4-Fluorobenzyl)furan-2-yl]-3-hydroxy-3-(pyrimidin-2-yl)-propenone]	0.247	77 to 80 °C		
O=C(O)C(O)=Cc1cnc(CCc2ccccc2)cn1 [Compound C-7]	2.26			
O=C(/C=C(\O)c1ccc[nH]1)c1ccc(Cc2ccc(F)cc2)o1 [Compound B-6, 1-[5-(4-Fluorobenzyl)furan-2-yl]-3-hydroxy-3-(pyrrol-2-yl)-propenone]	> 321			
O=C(C=C(O)c1ccco1)c1ccc(Cc2ccc(F)cc2)o1 [Compound B-1, 1-[5-(4-Fluorobenzyl)furan-2-yl]-3-(furan-2-yl)-3-hydroxy-propenone]	> 320	44 to 45 °C		
Cc1cc(C(O)=Cc2cc(CCc3ccccc3)ncn2)no1 [Compound C-6]	2.73			
OC(=Cc1cc(CCc2ccccc2)ncn1)c1ncn[nH]1 [Compound C-3]	1.7			
OC(=Cc1cc(CCc2ccccc2)ncn1)c1nnn[nH]1 [Compound C-2]	4.76			
O=C(C=C(O)c1ccccn1)c1ccc(Cc2ccc(F)cc2)o1 [Compound A-4, 1-[5-(4-Fluorobenzyl)furan-2-yl]-3-hydroxy-3-(pyridin-2-yl)-propenone]	0.619	84 to 85 °C		
O=C(O)C(O)Cc1cc(CCc2ccccc2)ncn1 [Compound D-3]	> 367			
Cc1cc(C(O)=CC(=O)c2ccc(Cc3ccc(F)cc3)o2)on1 [Compound B-7, 1-[5-(4-Fluorobenzyl)furan-2-yl]-3-hydroxy-3-(3-methylisoxazol-5-yl)-propenone]	> 306	106 to 107 °C		
O=C(O)C(=O)c1oc2ccc(OCc3ccc(F)cc3)cc2c1O [Compound E-2, [5-(4-Fluoro-benzyloxy)-3-hydroxy-benzofuran-2-yl]-2-oxo-acetic acid]	7.87			
COC(=O)C(=O)c1oc2ccc(OCc3ccc(F)cc3)cc2c1O [Compound E-1, [5-(4-Fluoro-benzyloxy)-3-hydroxy-benzofuran-2-yl]-2-oxo-acetic acid methyl ester]	7.55			
O=C(C=C(O)c1nn[nH]n1)c1ccc(Cc2ccc(F)cc2)o1 [Compound A-1, 1-[5-(4-Fluorobenzyl)furan-2-yl]3-hydroxy-3-(2H-tetrazol-5-yl)-propenone]	1.27	121 to 123 °C		

Structure (SMILES)	IC50 [1] [µM]	melting point	IC50 ([1]; concentration of the compound at percent inhibition 50%, MnCl2 buffer, 30° C., 1 hour) [µg/mL]	change in the UV spectrum curve as the metal ion concentration was increased [2]
O=C(O)C(=O)c1oc2ccc(Cc3ccc(F)cc3)cc2c1O [Compound E-6, [5-(4-Fluorobenzyl)-3-hydroxy-benzofuran-2-yl]-2-oxo-acetic acid]		207 to 210 °C		
OC(=Cc1cc(CCc2ccccc2)ncn1)c1nccs1 [Compound C-4]	1.94			
Cc1cc(C(O)=CC(=O)c2ccc(Cc3ccc(F)cc3)o2)no1 [Compound A-10, 1-[5-(4-Fluorobenzyl)furan-2-yl]-3-hydroxy-3-(5-methylisoxazol-3-yl)-propenone]	5.5	95 to 97 °C		
O=C(C=C(O)c1cccnc1)c1ccc(Cc2ccc(F)cc2)o1 [Compound B-4, 1-[5-(4-Fluorobenzyl)furan-2-yl]-3-hydroxy-3-(pyridin-3-yl)-propenone]	> 309	53 to 54 °C		
O=C(C=C(O)c1ccoc1)c1ccc(Cc2ccc(F)cc2)o1 [Compound B-2, 1-[5-(4-Fluorobenzyl)furan-2-yl]-3-(furan-37yl)-3-hydroxy-propenone]	> 320	53 to 55 °C		
O=C(O)c1ccc(C(O)=CC(=O)c2ccc(Cc3ccc(F)cc3)o2)nc1 [Compound A-6, 3-(5-Carboxypyridin-2-yl)-1-[5-(4-fluorobenzyl)furan-2-yl]-3-hydroxy-propenone]	0.272	196 to 198 °C		
Cc1cc(C(O)=Cc2cc(CCc3ccccc3)ncn2)on1 [Compound D-1]	> 325			
O=C(C=C(O)c1cc2ccccc2cn1)c1ccc(Cc2ccc(F)cc2)o1 [Compound A-7, 1-[5-(4-Fluorobenzyl)furan-2-yl]-3-hydroxy-3-(isoquinolin-3-yl)-propenone]	3.75	154 to 156 °C		
O=C(c1ccccn1)c1oc2ccc(Cc3ccc(F)cc3)cc2c1O [Compound E-8, 1-[5-(4-Fluoro-benzyl)-3-hydroxy-benzofuran-2-yl]-1-pyridine-2-yl-methanone]		258 °C (dec.)		
O=C(C=C(O)c1cnccn1)c1ccc(Cc2ccc(F)cc2)o1 [Compound A-3, 1-[5-(4-Fluorobenzyl)furan-2-yl]-3-hydroxy-3-(pyrazin-2-yl)-propenone]	1.85	127 to 129 °C		
O=C(C=C(O)c1ncccc1C(=O)O)c1ccc(Cc2ccc(F)cc2)o1 [Compound B-9, 3-(3-Carboxypyridin-2-yl)-1-[5-(4-fluorobenzyl)furan-2-yl]-3-hydroxy-propenone]	> 272	127 to 130 °C		
OC(=Cc1cc(CCc2ccccc2)ncn1)c1cnccn1 [Compound C-5]	5.26			
O=C(C=C(O)c1cccs1)c1ccc(Cc2ccc(F)cc2)o1 [Compound B-3, 1-[5-(4-Fluorobenzyl)furan-2-yl]-3-(thiophen-2-yl)-3-hydroxy-propenone]	> 305	50 to 52 °C		
Cn1cccc1C(O)=CC(=O)c1ccc(Cc2ccc(F)cc2)o1 [Compound B-5, 1-[5-(4-Fluorobenzyl)furan-2-yl]-3-hydroxy-3-(1-methylpyrrol-2-yl)-propenone]	> 307	75 to 76 °C		
COC(=O)C(=O)c1oc2ccc(Cc3ccc(F)cc3)cc2c1O [Compound E-5, [5-(4-Fluoro-benzyl)-3-hydroxy-benzofuran-2-yl]-2-oxo-acetic acid methyl ester]		128 to 130 °C		
O=C(O)/C(O)=C/c1ccc(OCc2ccccc2)cn1 [Compound C-8]	1.7			
